The values below are quoted from earlier work in paper PMC7643960 (PLoS ONE, 2020).

This series deals with healthy horses. To be noted: 1% NVX-207 twice a day for seven consecutive days, eight healthy horses; cited from earlier work.

The structures appear in SMILES notation.

On to `C=C(C)[C@@H]1CC[C@]2(C(=O)O)CC[C@]3(C)[C@H](CC[C@@H]4[C@@]5(C)CC[C@H](O)C(C)(C)[C@@H]5CC[C@]43C)[C@@H]12` [betulinic acid, reference compound], for which the “tolerability after topical application” value is “no compound-related local adverse effects”.
